Assays:
Format in all cases: in vivo
[1] = system: Cucurbit Leaf Beetle (Aulacophora Femoralis); assay: Test against cucurbit leaf beetle (Aulacophora femoralis), leaf dip; conditions: active compound concentration of 100 ppm, second instar larvae, after 7 days
Method: (§1) Solvent: 3 parts by weight of dimethylformamide
(§2) Emulsifier: 1 part by weight of polyoxyethylene alkyl phenyl ether
Leaves of cucumber were immersed in the test solution at the appropriate concentration, and the leaves were dried in air. The leaves were then put in a plastic cup containing sterilized black soil and five Aulacophora femoralis at second instar larvae were released in the cup. The cups were placed in a temperature-controlled chamber at 25° C. After 7 days, the number of dead larvae was counted, and thus the insecticidal activity was calculated. An insecticidal activity of 100% means that all larvae were killed, whereas an insecticidal activity of 0% means that no larva was killed.

[2] = system: Tobacco Cutworm (Spodoptera litura) Larvae; assay: Test against tobacco cutworm (Spodoptera litura) larvae, leaf dip; conditions: active compound concentration of 100 ppm, third instar larvae, after 7 days
Outline: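 Sweet potato leaves were dipped in the test solution (DMF solvent, polyoxyethylene alkyl phenyl ether emulsifier), air-dried and offered to ten third-instar larvae per dish at 25 °C, with fresh leaves added on days 2 and 4. Mortality was counted at day 7 and expressed as % insecticidal activity (100% = all dead).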

[3] = system: Two-Spotted Spider Mite (Tetranychus Urticae); assay: Test against two-spotted spider mite (Tetranychus urticae), spray; conditions: active compound concentration of 100 ppm; adult mites; after 7 days
Source text: as §1, §2

CCc1cc(C(F)(C(F)(F)F)C(F)(F)F)cc(C)c1NC(=O)c1ccc(CNC(=O)c2cccnc2Cl)cc1 [Compound 5-41]
100%: insecticidal activity [1] | insecticidal activity [2] | acaricidal activity [3]

CCC(=O)NC1CCc2cc(C(=O)Nc3c(C)cc(C(F)(C(F)(F)F)C(F)(F)F)cc3CC)ccc21 (stereo not drawn) [Compound 10-3]
100%: insecticidal activity [1] | insecticidal activity [2] | acaricidal activity [3]

CCc1cc(C(F)(C(F)(F)F)C(F)(F)F)cc(C)c1NC(=O)c1ccc(CNC(=O)c2cccnc2F)c(Br)c1 [Compound 5-93]
100%: insecticidal activity [1] | insecticidal activity [2] | acaricidal activity [3]

CCC(=O)NCc1ccc(C(=O)Nc2c(C)cc(C(F)(C(F)(F)F)C(F)(F)F)cc2CC)cc1Br [Compound 5-86]
100%: insecticidal activity [1] | insecticidal activity [2] | acaricidal activity [3]

CCc1cc(C(F)(C(F)(F)F)C(F)(F)F)cc(C)c1NC(=O)c1cc(F)c(CNC(=O)CC(F)(F)F)cc1F [Compound 5-62]
100%: insecticidal activity [1] | insecticidal activity [2] | acaricidal activity [3]

CCC(=O)NCc1ccc(C(=O)Nc2c(C)cc(C(F)(C(F)(F)F)C(F)(F)C(F)(F)F)cc2CC)cc1Cl (stereo not drawn) [Compound 5-151]
100%: insecticidal activity [1] | insecticidal activity [2] | acaricidal activity [3]

CCc1cc(C(F)(C(F)(F)F)C(F)(F)C(F)(F)F)cc(C)c1NC(=O)c1ccc(CNC(=O)c2cccnc2Cl)c(Br)c1 (stereo not drawn) [Compound 5-175]
100%: insecticidal activity [1] | insecticidal activity [2] | acaricidal activity [3]

CCC(=O)NCc1ccc(C(=O)Nc2c(Cl)cc(C(F)(C(F)(F)F)C(F)(F)C(F)(F)F)cc2Cl)cc1Cl (racemic) [Compound 5-243]
100%: insecticidal activity [1] | insecticidal activity [2] | acaricidal activity [3]

CCc1cc(C(F)(C(F)(F)F)C(F)(F)C(F)(F)F)cc(C)c1NC(=O)c1ccc(CNC(C)=O)c(Cl)c1 (stereo not drawn) [Compound 5-150]
100%: insecticidal activity [1] | insecticidal activity [2] | acaricidal activity [3]

CCc1cc(C(F)(C(F)(F)F)C(F)(F)F)cc(C)c1NC(=O)c1ccc(CNC(=O)CC(F)(F)F)c(Br)c1 [Compound 5-89]
100%: insecticidal activity [1] | insecticidal activity [2] | acaricidal activity [3]

CC(=O)NCc1ccc(C(=O)Nc2c(C)cc(C(F)(C(F)(F)F)C(F)(F)F)cc2OC(F)F)cc1Cl [Compound 5-294]
100%: insecticidal activity [1] | insecticidal activity [2] | acaricidal activity [3]

CCc1cc(C(F)(C(F)(F)F)C(F)(F)C(F)(F)F)cc(C)c1NC(=O)c1ccc(CNC(C)=O)c(Br)c1 (stereo not drawn) [Compound 5-157]
100%: insecticidal activity [1] | insecticidal activity [2] | acaricidal activity [3]

CCc1cc(C(F)(C(F)(F)F)C(F)(F)F)cc(C)c1NC(=O)c1ccc(C(C)NC(C)=O)cc1 (stereo not drawn) [Compound 9-2, 4-(1-acetamidoethyl)-N-[2-ethyl-4-(1,1,1,2,3,3,3-heptafluoropropan-2-yl)-6-methylphenyl]benzamide]
100%: pest or weed control at 100 ppm ([1]; Aulacophora, foliar, 168 h, read-out: insecticidal activity) | pest or weed control at 100 ppm ([2]; Spodoptera litura, foliar, 168 h, read-out: insecticidal activity) | acaricidal activity [3]

CCC(=O)NCc1ccc(C(=O)Nc2c(C)cc(C(F)(C(F)(F)F)C(F)(F)F)cc2OC(F)F)cc1Cl [Compound 5-295]
100%: insecticidal activity [1] | insecticidal activity [2] | acaricidal activity [3]

CCC(=O)NC(C)c1ccc(C(=O)Nc2c(C)cc(C(F)(C(F)(F)F)C(F)(F)F)cc2CC)cc1 (stereo not drawn) [Compound 9-3]
100%: insecticidal activity [1] | insecticidal activity [2] | acaricidal activity [3]

CCc1cc(C(F)(C(F)(F)F)C(F)(F)F)cc(C)c1NC(=O)c1ccc(CNC(C)=O)c(Br)c1 [Compound 5-85]
100%: insecticidal activity [1] | insecticidal activity [2] | acaricidal activity [3]

CCc1cc(C(F)(C(F)(F)F)C(F)(F)F)cc(C)c1NC(=O)c1ccc(CNC(=O)CC(F)(F)F)c(Cl)c1 [Compound 5-81]
100%: insecticidal activity [1] | insecticidal activity [2] | acaricidal activity [3]

CCc1cc(C(F)(C(F)(F)F)C(F)(F)F)cc(C)c1NC(=O)c1ccc(CNC(=O)c2cccnc2F)c(C)c1 [Compound 5-103]
100%: insecticidal activity [1] | insecticidal activity [2] | acaricidal activity [3]

O=C(CC1CC1)NCc1ccc(C(=O)Nc2c(Cl)cc(C(F)(C(F)(F)F)C(F)(F)F)cc2Cl)cc1 [Compound 5-225]
100%: insecticidal activity [1] | insecticidal activity [2] | acaricidal activity [3]

CCc1cc(C(F)(C(F)(F)F)C(F)(F)C(F)(F)F)cc(C)c1NC(=O)c1ccc(CNC(=O)c2cccnc2F)c(Cl)c1 (stereo not drawn) [Compound 5-155]
100%: insecticidal activity [1] | insecticidal activity [2] | acaricidal activity [3]

Cc1cc(C(F)(C(F)(F)F)C(F)(F)F)cc(OC(F)F)c1NC(=O)c1ccc(CNC(=O)CC(F)(F)F)c(Cl)c1 [Compound 5-296]
100%: insecticidal activity [1] | insecticidal activity [2] | acaricidal activity [3]

CCC(=O)NCc1ccc(C(=O)Nc2c(C)cc(C(F)(C(F)(F)F)C(F)(F)Br)cc2CC)cc1Cl (stereo not drawn) [Compound 5-220]
100%: insecticidal activity [1] | insecticidal activity [2] | acaricidal activity [3]

Cc1cc(C(F)(C(F)(F)F)C(F)(F)C(F)(F)F)cc(C)c1NC(=O)c1ccc(CNC(=O)CC(F)(F)F)c(F)c1F (stereo not drawn) [Compound 5-213]
100%: insecticidal activity [1] | insecticidal activity [2] | acaricidal activity [3]

Cc1cc(C(F)(C(F)(F)F)C(F)(F)F)cc(OC(F)F)c1NC(=O)c1ccc(C#N)cc1Cl [Compound I-12]
100%: insecticidal activity [1] | insecticidal activity [2] | acaricidal activity [3]

CCc1cc(C(F)(C(F)(F)F)C(F)(F)F)cc(C)c1NC(=O)c1cc(F)c(CNC(C)=O)cc1F [Compound 5-58]
100%: insecticidal activity [1] | insecticidal activity [2] | acaricidal activity [3]

CCc1cc(C(F)(C(F)(F)F)C(F)(F)Br)cc(C)c1NC(=O)c1ccc(CNC(=O)CC(F)(F)F)c(Cl)c1 (stereo not drawn) [Compound 5-221]
100%: insecticidal activity [1] | insecticidal activity [2] | acaricidal activity [3]

CCc1cc(C(F)(C(F)(F)F)C(F)(F)F)cc(C)c1NC(=O)c1ccc(CNC(C)=O)c(Cl)c1 [Compound 5-77]
100%: insecticidal activity [1] | insecticidal activity [2] | acaricidal activity [3]

CCc1cc(C(F)(C(F)(F)F)C(F)(F)Br)cc(C)c1NC(=O)c1ccc(CNC(=O)CSC)c(Cl)c1 (stereo not drawn) [Compound 5-320]
100%: insecticidal activity [1] | insecticidal activity [2] | acaricidal activity [3]

CCC(=O)NCc1ccc(C(=O)Nc2c(C)cc(C(F)(C(F)(F)F)C(F)(F)F)cc2CC)cc1Cl [Compound 5-78]
100%: insecticidal activity [1] | insecticidal activity [2] | acaricidal activity [3]

CCc1cc(C(F)(C(F)(F)F)C(F)(F)F)cc(C)c1NC(=O)c1ccc(CNC(=O)c2ccc(F)cc2)cc1 [Compound 5-36]
100%: insecticidal activity [1] | insecticidal activity [2] | acaricidal activity [3]

Cc1cc(C(F)(C(F)(F)F)C(F)(F)F)cc(OC(F)F)c1NC(=O)c1ccc(CNC(=O)C2CC2)c(Cl)c1 [Compound 5-341]
100%: insecticidal activity [1] | insecticidal activity [2] | acaricidal activity [3]

CCc1cc(C(F)(C(F)(F)F)C(F)(F)F)cc(C)c1NC(=O)c1ccc2c(c1)CCC2NC(=O)CC(F)(F)F (stereo not drawn) [Compound 10-6]
100%: insecticidal activity [1] | insecticidal activity [2] | acaricidal activity [3]

O=C(CC(F)(F)F)NCc1ccc(C(=O)Nc2c(Cl)cc(C(F)(C(F)(F)F)C(F)(F)C(F)(F)F)cc2Cl)cc1Cl (racemic) [Compound 5-244]
100%: insecticidal activity [1] | insecticidal activity [2] | acaricidal activity [3]

CC(=O)NCc1ccc(C(=O)Nc2c(Cl)cc(C(F)(C(F)(F)F)C(F)(F)C(F)(F)F)cc2Cl)cc1Cl (racemic) [Compound 5-242]
100%: insecticidal activity [1] | insecticidal activity [2] | acaricidal activity [3]

CCc1cc(C(F)(C(F)(F)F)C(F)(F)Br)cc(C)c1NC(=O)c1ccc(CNC(C)=O)c(Cl)c1 (stereo not drawn) [Compound 5-219]
100%: insecticidal activity [1] | insecticidal activity [2] | acaricidal activity [3]

CCc1cc(C(F)(C(F)(F)F)C(F)(F)C(F)(F)F)cc(C)c1NC(=O)c1ccc(CNC(=O)CC(F)(F)F)c(Cl)c1 (stereo not drawn) [Compound 5-154]
100%: insecticidal activity [1] | insecticidal activity [2] | acaricidal activity [3]

CCc1cc(C(F)(C(F)(F)F)C(F)(F)F)cc(C)c1NC(=O)c1cc(F)c(CNC(=O)CC2CC2)cc1F [Compound 5-61]
100%: insecticidal activity [1] | insecticidal activity [2] | acaricidal activity [3]
